Source: PubChem BioAssay AID2060905 (Molecular Pharmacology Branch, DTP, NCI, 2025)

System: 282377-053-R-J1-PDC complex spheroid viability
Experiment: Anticancer human tumor 282377-053-R-J1-PDC patient-derived colon adenocarcinoma cell line growth inhibition [RAS]
Conditions: for viability, T/C: stronger effect = lower value; active means viability on the fitted dose curve at most 10% of control; inactive means the rest
How it was run: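 Tumour cells grown as complex spheroids with HUVEC endothelial cells and mesenchymal stem cells, treated with RAS pathway inhibitor combinations. Each agent spans half-log steps from near clinical Cmax, or 10 microM where Cmax is unknown.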
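Further: spheroids exposed to agents for seven days before readout.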
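Wherever viability, T/C is given: luminescence viability as percent of DMSO vehicle control wells.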

CCn1c(-c2cccnc2C(C)OC)c2c3cc(ccc31)N1CCOC(CC(NC(=O)C(C(C)C)N(C)C(=O)C3(F)CCN(C(=O)C#CC(C)(C)N(C)C)CC3)C(=O)N3CCCC(N3)C(=O)OCC(C)(C)C2)C1 (stereo not drawn)
inactive: viability, T/C (compound 0.000949 µM) 98.8% [middle of 8 runs] | viability, T/C (compound 0.00949 µM) 104% [middle of 8 runs] | viability, T/C (compound 0.03 µM) 102% [middle of 8 runs] | viability, T/C (compound 0.0949 µM) 102% [middle of 8 runs] | viability, T/C (compound 0.3 µM) 102% [middle of 8 runs]
> 0.3 µM: IC50 (compound alone, run of 05/20/2024)

C[C@@H](NC(=O)c1ncnc(N)c1Cl)c1ncc(C(=O)Nc2cc(C(F)(F)F)c(Cl)cn2)s1 + CCn1c(-c2cc(N3CCN(C)CC3)cnc2C(C)OC)c2c3cc(ccc31)-c1csc(n1)CC(NC(=O)C1CC1C)C(=O)N1CCCC(N1)C(=O)OCC(C)(C)C2
inactive: viability, T/C (second compound 0.000949 µM, first compound 0.0316 µM) 82.7% | viability, T/C (second compound 0.000949 µM, first compound 0.1 µM) 100% | viability, T/C (second compound 0.000949 µM, first compound 0.316 µM) 80% | viability, T/C (second compound 0.000949 µM, first compound 1 µM) 82.7% | viability, T/C (second compound 0.000949 µM, first compound 3.16 µM) 75.6% | viability, T/C (second compound 0.000949 µM, first compound 10 µM) 68.8% | viability, T/C (second compound 0.003 µM, first compound 0.0316 µM) 89.8% | viability, T/C (second compound 0.003 µM, first compound 0.1 µM) 125% | viability, T/C (second compound 0.003 µM, first compound 0.316 µM) 81.8% | viability, T/C (second compound 0.003 µM, first compound 1 µM) 90.2% | viability, T/C (second compound 0.003 µM, first compound 3.16 µM) 70.6% | viability, T/C (second compound 0.003 µM, first compound 10 µM) 59.2% | viability, T/C (second compound 0.00949 µM, first compound 0.0316 µM) 110% | viability, T/C (second compound 0.00949 µM, first compound 0.1 µM) 115% | viability, T/C (second compound 0.00949 µM, first compound 0.316 µM) 85.8% | viability, T/C (second compound 0.00949 µM, first compound 1 µM) 94% | viability, T/C (second compound 0.00949 µM, first compound 3.16 µM) 68% | viability, T/C (second compound 0.00949 µM, first compound 10 µM) 57.9% | viability, T/C (second compound 0.03 µM, first compound 0.0316 µM) 97.2% | viability, T/C (second compound 0.03 µM, first compound 0.1 µM) 106% | viability, T/C (second compound 0.03 µM, first compound 0.316 µM) 89.4% | viability, T/C (second compound 0.03 µM, first compound 1 µM) 96% | viability, T/C (second compound 0.03 µM, first compound 3.16 µM) 63.2% | viability, T/C (second compound 0.03 µM, first compound 10 µM) 60.1% | viability, T/C (second compound 0.0949 µM, first compound 0.0316 µM) 110% | viability, T/C (second compound 0.0949 µM, first compound 0.1 µM) 105% | viability, T/C (second compound 0.0949 µM, first compound 0.316 µM) 77.1% | viability, T/C (second compound 0.0949 µM, first compound 1 µM) 94.2% | viability, T/C (second compound 0.0949 µM, first compound 3.16 µM) 73.1% | viability, T/C (second compound 0.0949 µM, first compound 10 µM) 74.2% | viability, T/C (second compound 0.3 µM, first compound 0.0316 µM) 94.3% | viability, T/C (second compound 0.3 µM, first compound 0.1 µM) 103% | viability, T/C (second compound 0.3 µM, first compound 0.316 µM) 89.3% | viability, T/C (second compound 0.3 µM, first compound 1 µM) 108% | viability, T/C (second compound 0.3 µM, first compound 3.16 µM) 86.4% | viability, T/C (second compound 0.3 µM, first compound 10 µM) 61.2%
> 10 µM: IC50 (curve of first compound, second compound 0.000949 µM) | IC50 (curve of first compound, second compound 0.003 µM) | IC50 (curve of first compound, second compound 0.00949 µM) | IC50 (curve of first compound, second compound 0.03 µM) | IC50 (curve of first compound, second compound 0.0949 µM) | IC50 (curve of first compound, second compound 0.3 µM)
